Experimental data from patent publication US5371186A, “Synthetic peptides for detoxification of bacterial endotoxins and for the prevention and treatment of septic shock” (priority 1992, dated 1994).

Experiments:
Vibrio cholerae = assay: antibiotic activity, zone of inhibition on BHI plates; assay type: cell-based, V. choleras; conditions: 18 hours
Method: (§1) The following experiments compared the antibiotic activity of Polymyxin "B" with various peptides of the invention.
(§2) The tests were performed on BHI plates with liquid cultures of the test organism to give a lawn. Each peptide was diluted in water and placed on sterile Wathmam 3M disks on the surface of the plate. The plates were dried and incubated at 37° C. The zone of inhibition was measured after 18 hours: […]

Salmonella Typhi = assay: as above; assay type: cell-based, S. typhi; conditions: 18 hours
Method: as §1, §2

[1] = Rabbit pyrogen test of peptide/LPS complexes; assay type: in vivo; conditions: rabbits, complex with LPS injected, three hours observation
From the text: As a consequence of this high-affinity binding to the Lipid A moiety of endotoxins, most of the synthetic peptide analogs have shown the ability to detoxify endotoxins as evidenced by in vitro as well as in vivo analysis. The in vitro test used, as measure of detoxification, the inhibition of the enzymatic cascade leading to the coagulation of the Lymulus lysate (LAL test) by endotoxin. The LAL test is recognized as the most sensitive and predictive test for the toxic and pyrogenic activity of LPS, since pyrogenicity in vivo is related to the release of the endogenous immune modulators Interleukin-1 (IL-l) and alfa-Tumor necrosis factor (α-TNF), the mediators responsible for the fatalities associated to septic shock. As an in vivo test confirming detoxification of LPS, was then used the Rabbit pyrogen test performed according to the United States Pharmacopeia XXI.
In order to verify "in vivo" the detoxifying activity of the peptides, we have injected five groups of three rabbits each with the complexes formed by two representative synthetic peptide analogs with LPS. The pyrogenicity test has been executed according to the United States Pharmacopeia (Vol. XXI)/The National formulary (Vol. XVI), Combined Edition, Jan. 1, 1985. As a negative control in the test, the complex formed by Polymyxin "B" and LPS was injected. As a positive control free LPS was injected. […]

trypsin in human serum = assay: stability towards proteolysis by trypsin in human serum; assay type: in vitro ADME
Method: The effects of trypsin present in human serum on Polymyxin "B" and the peptides of invention was determined by combining 10 μl of human serum with 20 μg of the given peptide in 10 μl volume and holding the mixture at a temperature of 37° C. for different intervals of time. At various times, an aliquot of the mixture was processed by HPLC analysis in order to detect the residual amount of the investigated peptide. In Table VI the half-lives time of each peptide investigated are shown as compared to the half-life time of Polymyxin "B".

[2] = stoichiometry of the complexes with LPS by amino acid analysis; assay type: binding; conditions: 10 μg B. Pertussis LPS (2.64 nmoles Lipid A) + 10 μg peptide
Method: Quantitation of the amount of precipitated peptides present in the complexes with PLS of B. pertussis has been done by amino acid analysis after acid hydrolysis (by 6 M HCl) of the complexes recovered by centrifugation at 3,000 rpm×15 minutes. In Table III, the stoichiometry of some complexes is reported as calculated by the ratio (on molar basis) between the amount of each peptide and the amount of Lipid A present in the structure of LPS used in the experiments:
*Complexes formed between 10 μg of B. Pertussis LPS (equivalent to 4.5
μg of Lipid A of 2.64 nmoles) and 10 μg of peptide (twice the amoun
corresponding to the saturation point found for Polymyxin "B" in the
**Values represent the average of two separate experiments of amino acid
analysis after acid hydrolysis of the recovered complexes.

[3] = same species of mice (Swiss Webster); cited from earlier work

Polymyxin "B"
Zone (mm) of inhibition V. choleras (Vibrio cholerae; 0.008 μg/ml): 1 mm
Zone (mm) of inhibition V. choleras (Vibrio cholerae; 0.04 μg/ml): 2 mm
Zone (mm) of inhibition V. choleras (Vibrio cholerae; 0.2 μg/ml): 2.5 mm
Zone (mm) of inhibition V. choleras (Vibrio cholerae; 1.0 μg/ml): 5 mm
Zone (mm) of inhibition S. typhi (Salmonella Typhi; 0.008 μg/ml): 0 mm
Zone (mm) of inhibition S. typhi (Salmonella Typhi; 0.04 μg/ml): 1 mm
Zone (mm) of inhibition S. typhi (Salmonella Typhi; 0.2 μg/ml): 2 mm
Zone (mm) of inhibition S. typhi (Salmonella Typhi; 1.0 μg/ml): 4 mm
pyrogenicity (temperature increase) of complex with LPS [1]: did not show either of the two waves of temperature increase
stability in the presence of proteolytic enzymes such as trypsin (trypsin in human serum): stable in the presence of trypsin
Half-Life Time (t/2) (trypsin in human serum; human serum, 37° C.): > 3 h
Ratio peptide/LipA [2]: 1.02 mol/mol
Amount of peptide in the complex ([2]; average of two experiments): 2.69 nmol
LD50 [3]: 2.5 to 5 mg/kg
